Results as given in ChEMBL document CHEMBL2057163, “Pyridofuran substituted pyrimidine derivatives as HCV replication (replicase) inhibitors” (Bioorg Med Chem Lett, 2012).

Experiments:
[1] = AUC (0 to 6 hrs) in rat at 10 mg/kg, po; format: ADME, organism-based; set-up: time < 6 hr, dose 10 mg/kg, route oral; details: plasma
Liver = assay: Drug uptake in rat liver assessed per gram of tissue at 10 mg/kg, po measured at 6 hrs; format: ADME, organism-based; set-up: dose 10 mg/kg, route oral; details: in vivo
[2] = Cytotoxicity against human hepatoma cells assessed as inhibition of [14C]thymidine incorporation after 3 days by scintillation proximity assay; format: cell-based
[3] = Oral bioavailability in rat at 10 mg/kg; format: ADME, organism-based; details: in vivo
[4] = Half life in rat at 10 mg/kg, po; format: ADME, organism-based; set-up: dose 10 mg/kg, route oral; details: in vivo
[5] = Clearance in rat at 10 mg/kg, po; format: ADME, organism-based; set-up: dose 10 mg/kg, route oral; details: in vivo
[6] = AUC in monkey at 3 mg/kg, po; format: ADME, organism-based, Macaca mulatta; set-up: dose 3 mg/kg, route oral; details: rhesus monkey, plasma
[7] = Oral bioavailability in monkey at 3 mg/kg; format: ADME, organism-based, Macaca mulatta; details: rhesus monkey, in vivo
[8] = Half life in monkey at 3 mg/kg, po; format: ADME, organism-based, Macaca mulatta; set-up: dose 3 mg/kg, route oral; details: rhesus monkey, in vivo
[9] = Clearance in monkey at 3 mg/kg, po; format: ADME, organism-based, Macaca mulatta; set-up: dose 3 mg/kg, route oral; details: rhesus monkey, in vivo
[10] = AUC in dog at 3 mg/kg, po; format: ADME, organism-based, Canis lupus familiaris; set-up: dose 3 mg/kg, route oral; details: plasma
[11] = Oral bioavailability in dog at 3 mg/kg; format: ADME, organism-based, Canis lupus familiaris; details: in vivo
[12] = Half life in dog at 3 mg/kg, po; format: ADME, organism-based, Canis lupus familiaris; set-up: dose 3 mg/kg, route oral; details: in vivo
[13] = Clearance in dog at 3 mg/kg, po; format: ADME, organism-based, Canis lupus familiaris; set-up: dose 3 mg/kg, route oral; details: in vivo
Hepatitis C virus = assay: Antiviral activity against Hepatitis C virus 1b con1 infected in human hepatoma cells assessed as decrease in replicon RNA level after 3 days by RT-PCR analysis; format: functional, organism-based, Hepacivirus hominis; details: Con1, 72 h
[14] = Cytotoxicity against human hepatoma cells after 3 days by MTS assay; format: cell-based
[15] = Cytotoxicity against human hepatoma cells assessed as decrease in GAPDH RNA level after 3 days by RT-PCR analysis; format: cell-based
[16] = Selectivity ratio of CC50 for human hepatoma cells by MTS assay to EC50 for Hepatitis C virus 1b con1; format: ADME; details: read-out: Ratio CC50/EC50

AUC(0-t) at 6 h [1] [µM·h] | liver concentration (Liver) [ng/g] | bioavailability [3] [%] | half-life [4] [h] | CL/F [5] [mL/min/kg] | AUC [6] [µM·h] | bioavailability [7] [%] | half-life [8] [h] | CL/F [9] [mL/min/kg] | AUC [10] [µM·h] | bioavailability [11] [%] | half-life [12] [h] | CL/F [13] [mL/min/kg] | EC50 (Hepatitis C virus) [µM] | Structure (SMILES) | CC50 at 72 h [2] [µM] | CC50 at 72 h [14] [µM] | CC50 at 72 h [15] [µM] | selectivity ratio [16]
45.5 | 10200 | 97 | 3.3 | 8 | 10.2 | 100 | 2.8 | 16 | 1.6 | 15 | 2.1 | 9.5 |  | CCOc1cc2cc(-c3c(C)nc(NCC4CC4)nc3N[C@@H]3C[C@H](CO)[C@@H](O)[C@H]3O)oc2c(C)n1.Cl | 5 |  |  | 
5.3 | 1730 | 39 | 4.2 | 27 | 5.2 | 69 | 7 | 15 | 6.4 | 83 | 2.1 | 13 |  | CCc1cc2cc(-c3c(C)nc(NCC(F)(F)F)nc3N[C@@H]3C[C@H](CO)[C@@H](O)[C@H]3O)oc2cn1.Cl | 4 |  |  | 
 |  |  |  |  |  |  |  |  |  |  |  |  | 0.02 | CNc1nc(Cl)c(-c2cc3cc(OC)nc(C)c3o2)c(N[C@@H]2C[C@H](CO)[C@@H](O)[C@H]2O)n1 |  | 25 | > 25 | > 1000
